Measurements reported in ChEMBL document CHEMBL3779887, “Robenidine Analogues as Gram-Positive Antibacterial Agents” (J Med Chem, 2016).
Active and inactive are the calls of the source.

How the values were obtained:
[1] = Cytotoxicity against human HepG2 cells after 24 hrs by WST-1 based colorimetric assay; format: cell-based
Staphylococcus aureus [2] = test: Antibacterial activity against methicillin-resistant Staphylococcus aureus after 20 to 24 hrs; format: functional
Enterococcus = test: Antibacterial activity against vancomycin-resistant Enterococcus after 20 to 24 hrs; format: functional
Escherichia coli [3] = test: Antibacterial activity against Escherichia coli ATCC 25922 after 20 to 24 hrs; format: functional
Pseudomonas aeruginosa [4] = test: Antibacterial activity against Pseudomonas aeruginosa ATCC 27853 after 20 to 24 hrs; format: functional
Staphylococcus aureus [5] = test: Antibacterial activity against methicillin-resistant Staphylococcus aureus clinical isolate after 20 to 24 hrs; format: functional
Staphylococcus aureus [6] = test: Antibacterial activity against Staphylococcus aureus ATCC 29213 after 20 to 24 hrs in presence of 2% heat inactivated bovine serum; format: functional
Staphylococcus aureus [7] = test: Bactericidal activity against methicillin-resistant Staphylococcus aureus clinical isolate after 24 and 48 hrs; format: functional
Escherichia coli [8] = test: Antibacterial activity against Escherichia coli ATCC 25922 after 20 to 24 hrs in presence of polymyxin B nonapeptide; format: functional
Pseudomonas aeruginosa [9] = test: Antibacterial activity against Pseudomonas aeruginosa ATCC 27853 after 20 to 24 hrs in presence of polymyxin B nonapeptide; format: functional
Escherichia coli [10] = test: Ratio of MIC90 for Escherichia coli ATCC 25922 to MIC90 for Escherichia coli ATCC 25922 in presence of polymyxin B nonapeptide; format: functional
Pseudomonas aeruginosa [11] = test: Ratio of MIC90 for Pseudomonas aeruginosa ATCC 27853 to MIC90 for Pseudomonas aeruginosa ATCC 27853 in presence of polymyxin B nonapeptide; format: functional
Staphylococcus aureus [12] = test: Bactericidal activity against methicillin-sensitive Staphylococcus aureus ATCC 29213 assessed as log reduction in bacterial cell number at MIC after 8 hrs by time-kill curve analysis; format: functional
Staphylococcus aureus [13] = test: Bactericidal activity against methicillin-sensitive Staphylococcus aureus ATCC 29213 assessed as log reduction in bacterial cell number at 2 times MIC after 8 hrs by time-kill curve analysis; format: functional
Staphylococcus aureus [14] = test: Bactericidal activity against methicillin-sensitive Staphylococcus aureus ATCC 29213 assessed as log reduction in bacterial cell number at 4 times MIC after 8 hrs by time-kill curve analysis; format: functional
Staphylococcus aureus [15] = test: Bactericidal activity against methicillin-sensitive Staphylococcus aureus ATCC 29213 assessed as log reduction in bacterial cell number at 8 times MIC after 8 hrs by time-kill curve analysis; format: functional
Staphylococcus aureus [16] = test: Bactericidal activity against methicillin-sensitive Staphylococcus aureus clinical isolate USA300 assessed as log reduction in bacterial cell number at MIC after 8 hrs by time-kill curve analysis; format: functional
Staphylococcus aureus [17] = test: Bactericidal activity against […] Staphylococcus aureus clinical isolate USA300 assessed as log reduction in bacterial cell number at 2 times MIC after 8 hrs by time-kill curve analysis; format: functional
Staphylococcus aureus [18] = test: Bactericidal activity against […] Staphylococcus aureus clinical isolate USA300 assessed as log reduction in bacterial cell number at 4 times MIC after 8 hrs by time-kill curve analysis; format: functional
Staphylococcus aureus [19] = test: Bactericidal activity against […] Staphylococcus aureus clinical isolate USA300 assessed as log reduction in bacterial cell number at 8 times MIC after 8 hrs by time-kill curve analysis; format: functional
Staphylococcus aureus [20] = test: Bactericidal activity against Methicillin-sensitive Staphylococcus aureus ATCC 29213 assessed as log reduction in bacterial cell number at 2 times MIC after 24 hrs by time kill curve analysis; format: functional, organism-based
Staphylococcus aureus [21] = test: Bactericidal activity against Methicillin-sensitive Staphylococcus aureus ATCC 29213 assessed as log reduction in bacterial cell number at 4 times MIC after 24 hrs by time kill curve analysis; format: functional, organism-based
Staphylococcus aureus [22] = test: Bactericidal activity against Methicillin-sensitive Staphylococcus aureus ATCC 29213 assessed as log reduction in bacterial cell number at 8 times MIC after 24 hrs by time-kill curve analysis; format: functional, organism-based
Staphylococcus aureus [23] = test: Bactericidal activity against […] Staphylococcus aureus clinical isolate USA300 assessed as log reduction in bacterial cell number at MIC after 24 hrs by time-kill curve analysis; format: functional, organism-based
Staphylococcus aureus [24] = test: Bactericidal activity against […] Staphylococcus aureus clinical isolate USA300 assessed as log reduction in bacterial cell number at 2 times MIC after 24 hrs by time-kill curve analysis; format: functional, organism-based
Staphylococcus aureus [25] = test: Bactericidal activity against […] Staphylococcus aureus clinical isolate USA300 assessed as log reduction in bacterial cell number at 4 times MIC after 24 hrs by time-kill curve analysis; format: functional, organism-based
Staphylococcus aureus [26] = test: Bactericidal activity against […] Staphylococcus aureus clinical isolate USA300 assessed as log reduction in bacterial cell number at 8 times MIC after 24 hrs by time-kill curve analysis; format: functional, organism-based
[27] = Toxicity in sheep erythrocytes assessed as hemolysis at 600 uM after 30 mins; format: cell-based, Ovis aries; conditions: erythrocyte, 0.5 h
[28] = Cytotoxicity against human HEL299 cells after 24 hrs by WST-1 based colorimetric assay; format: cell-based, HEL 299
[29] = Selectivity index, ratio of GI50 for human HEL299 cells to MIC50 for methicillin-sensitive Staphylococcus aureus clinical isolate; format: functional, HEL 299
[30] = Selectivity index, ratio of GI50 for human HEL299 cells to MIC50 for methicillin-resistant Staphylococcus aureus clinical isolate; format: functional, HEL 299
[31] = Selectivity index, ratio of GI50 for human HepG2 cells to MIC50 for methicillin-sensitive Staphylococcus aureus clinical isolate; format: functional
[32] = Selectivity index, ratio of GI50 for human HepG2 cells to MIC50 for methicillin-resistant Staphylococcus aureus clinical isolate; format: functional
Staphylococcus aureus [33] = test: Antibacterial activity against methicillin-sensitive Staphylococcus aureus ATCC 25923 after 20 to 24 hrs; format: functional
Staphylococcus aureus [34] = test: Antibacterial activity against methicillin-sensitive Staphylococcus aureus ATCC 6538 after 20 to 24 hrs; format: functional
Staphylococcus aureus [35] = test: Antibacterial activity against methicillin-sensitive Staphylococcus aureus ATCC 49775 after 20 to 24 hrs; format: functional
Staphylococcus aureus [36] = test: Antibacterial activity against methicillin-sensitive Staphylococcus aureus ATCC 29213 after 20 to 24 hrs; format: functional
Staphylococcus aureus [37] = test: Antibacterial activity against methicillin-sensitive Staphylococcus aureus ATCC 6538 after 20 to 24 hrs in presence of 50% heat inactivated bovine serum; format: functional
Staphylococcus aureus [38] = test: Antibacterial activity against methicillin-sensitive Staphylococcus aureus ATCC 49775 after 20 to 24 hrs in presence of 50% heat inactivated bovine serum; format: functional
Staphylococcus aureus [39] = test: Antibacterial activity against methicillin-sensitive Staphylococcus aureus ATCC 29213 after 20 to 24 hrs in presence of 50% heat inactivated bovine serum; format: functional
Staphylococcus aureus [40] = test: Bactericidal activity against methicillin-sensitive Staphylococcus aureus ATCC 25923 after 24 and 48 hrs; format: functional
Staphylococcus aureus [41] = test: Bactericidal activity against methicillin-sensitive Staphylococcus aureus ATCC 6538 after 24 and 48 hrs; format: functional
Staphylococcus aureus [42] = test: Bactericidal activity against methicillin-sensitive Staphylococcus aureus ATCC 49775 after 24 and 48 hrs; format: functional
Staphylococcus aureus [43] = test: Bactericidal activity against methicillin-sensitive Staphylococcus aureus ATCC 29213 after 24 and 48 hrs; format: functional
Staphylococcus aureus [44] = test: Ratio of MBC for methicillin-sensitive Staphylococcus aureus ATCC 25923 to MIC90 for methicillin-sensitive Staphylococcus aureus ATCC 25923; format: functional
Staphylococcus aureus [45] = test: Ratio of MBC for methicillin-sensitive Staphylococcus aureus ATCC 6538 to MIC90 for methicillin-sensitive Staphylococcus aureus ATCC 6538; format: functional
Staphylococcus aureus [46] = test: Ratio of MBC for methicillin-sensitive Staphylococcus aureus ATCC 49775 to MIC90 for methicillin-sensitive Staphylococcus aureus ATCC 49775; format: functional
Staphylococcus aureus [47] = test: Ratio of MBC for methicillin-sensitive Staphylococcus aureus ATCC 29213 to MIC90 for methicillin-sensitive Staphylococcus aureus ATCC 29213; format: functional
Staphylococcus aureus [48] = test: Antibacterial activity against methicillin-sensitive Staphylococcus aureus ATCC 29213 after 20 to 24 hrs in presence of 50% heat inactivated bovine serum
Staphylococcus aureus [49] = test: as above; remark: listed apart in the source
Staphylococcus aureus [50] = test: Bactericidal activity against Methicillin-sensitive Staphylococcus aureus ATCC 29213 assessed as log reduction in bacterial cell number at MIC after 8 hrs by time kill curve analysis

C/C(=N\NC(=N)N/N=C(\C)c1ccc(Cl)cc1)c1ccc(Cl)cc1
1.3 µM: MIC90 (Staphylococcus aureus [5]) | MIC90 (Staphylococcus aureus [33]) | MIC90 (Staphylococcus aureus [34]) | MIC90 (Staphylococcus aureus [35]) | MIC90 (Staphylococcus aureus [36])
10 µM: MIC90 (Staphylococcus aureus [6]) | MIC90 (Escherichia coli [8])
7.5 µM: MIC (Staphylococcus aureus [2])
3.8 µM: MIC (Enterococcus)
> 250 µM: MIC90 (Escherichia coli [3]) | MIC90 (Pseudomonas aeruginosa [4]) | MIC90 (Staphylococcus aureus [37]) | MIC90 (Staphylococcus aureus [38]) | MIC90 (Staphylococcus aureus [39]) | MIC90 (Staphylococcus aureus [48]) | MIC90 (Staphylococcus aureus [49])
1: Ratio (Staphylococcus aureus [44]) | Ratio (Staphylococcus aureus [45]) | Ratio (Staphylococcus aureus [46]) | Ratio (Staphylococcus aureus [47])
Non-toxic: Activity [27]
10: Ratio (Escherichia coli [10]) | Ratio (Pseudomonas aeruginosa [11])
>=4 log10CFU/ml: Activity (Staphylococcus aureus [12]) | Activity (Staphylococcus aureus [13]) | Activity (Staphylococcus aureus [14]) | Activity (Staphylococcus aureus [15]) | Activity (Staphylococcus aureus [16]) | Activity (Staphylococcus aureus [17]) | Activity (Staphylococcus aureus [18]) | Activity (Staphylococcus aureus [19])
2.5 µM: MBC (Staphylococcus aureus [7]) | MBC (Staphylococcus aureus [40]) | MBC (Staphylococcus aureus [41]) | MBC (Staphylococcus aureus [42]) | MBC (Staphylococcus aureus [43])
6.7 µM: GI50 at 24 h [28]
inactive: Activity (Staphylococcus aureus [20]) | Activity (Staphylococcus aureus [21]) | Activity (Staphylococcus aureus [22]) | Activity (Staphylococcus aureus [23]) | Activity (Staphylococcus aureus [24]) | Activity (Staphylococcus aureus [25]) | Activity (Staphylococcus aureus [26]) | Activity (Staphylococcus aureus [50])
5 µM: MIC90 (Pseudomonas aeruginosa [9])
2: Selectivity Index [29] | Selectivity Index [30] | Selectivity Index [31] | Selectivity Index [32]
13.8 µM: GI50 at 24 h [1]
